Laboratory results as given in the METLIN SMRT retention time set (Domingo-Almenara et al. 2019).

Test: gradient 5% acetonitrile 3 min, to 50% in 2 min, to 85% in 15 min, held 3 min, 100 µL/min
Conditions: column: Zorbax Extend-C18 2.1 x 50 mm; eluents: water / acetonitrile, 0.1% formic acid
How it was run: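 In both positive and negative ionization mode, a quadrupole time-of-flight mass spectrometer coupled to HPLC analyzed pure standards run in mixtures of ~100 molecules. The Zorbax Extend-C18 column (2.1 × 50 mm, 1.8 μm) was operated at 100 μL/min with water and acetonitrile, each containing 0.1% formic acid. The dead volume was 40 μL and the dwell volume 900 μL. Retention time came from adduct peaks that were computationally picked and individually inspected by hand.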

Structure (SMILES)	RP-LC retention time [s]
CCOC(=O)c1ccc(NC(=O)c2c(OC)cc(=O)n3c2CCCC3)cc1	718
CCOc1ccc(NC(=O)N2CCN(Cc3nc4ccc(C)cc4o3)CC2)cc1	733
Cc1ccc(S(=O)(=O)N2CCN(C3=CC4=NC(C)CN4C=N3)CC2)cc1C (stereo unspecified)	698
CC(=O)N1CCc2cc(N3CC(C(=O)NC(C)c4ccc(C)cc4C)CC3=O)ccc21 (stereo unspecified)	772
Cc1cccc(C(=O)Nc2nc(-c3ccc4c(c3)NC(=O)C(C)O4)c(C)s2)c1 (stereo unspecified)	979
Cc1cc2c(c(=O)n1Cc1ccccc1)C(C(C)C)C(C#N)=C(N)O2 (stereo unspecified)	769
COCCN1C(=O)c2ccccc2C(C(=O)NCc2ccccc2OC)C1c1ccc(F)cc1 (stereo unspecified)	924
Cc1ccc(CNC(=O)Cc2nnc(-c3ccccn3)o2)cc1	692
CCOc1ccccc1NC(=O)Cn1cnc2nc(N3CCC(C(=O)NC4CC4)CC3)sc2c1=O	696
Cc1ccc(-c2cn3cccc(C)c3n2)cc1NS(=O)(=O)c1ccc(Cl)cc1	714
COc1ccc(N2CCN(c3nccc4ccc(C(=O)NC5CCCCCC5)cc34)CC2)cc1	835
O=C(N1CCC(Cc2nc(-c3ccccc3)n[nH]2)C1)C1(c2ccccc2)CC1 (stereo unspecified)	755
Cc1csc(NC(=O)C2CCCN(c3ncnc4c3nc3n4CCCCC3)C2)n1 (stereo unspecified)	756
COc1cc(OC)c(NC(=O)N2CCC3(C2)c2nc[nH]c2CCN3C)cc1Cl (stereo unspecified)	569
CCNC(=O)CCc1nc2ccccc2n(CC(=O)Nc2ccc(OC)c(OC)c2)c1=O	658
CCN1C(=O)c2cc(C(=O)NCc3ccc(N(C)C)cc3)nn2CC1(C)C(=O)NC1CCCC1 (stereo unspecified)	570
CCOC(=O)C(C)NC(=O)N1CCc2cc(-c3ccc(C(=O)N4CCOCC4)cc3)ccc21 (stereo unspecified)	751
Cc1ccc(-c2noc(CSc3nc4cc5c(cc4c(=O)n3C3CC3)OCO5)n2)cc1	874
CCOC(=O)CNC(=O)N1CCN(Cc2nc3cccnc3n2-c2ccc(C)cc2)CC1	611

The next lines start with the values.

RP-LC retention time [s]	Structure (SMILES)
582	Cc1nccn1C1CN(C(=O)c2ccc3cc[nH]c3c2)C1
748	CCOC(=O)c1ccc(NC(=O)CSc2cc(N3CCC(C(=O)NC4CC4)CC3)ncn2)cc1
667	Cc1ccc2c(=O)c3c([nH]c2c1C)CCN(CC(=O)Nc1ccc2c(c1)OCCO2)C3
599	Cc1cc(N2CCN(C)CC2)nc2ccc(NC(=S)NCc3ccc(F)cc3)cc12
671	CC(C)CCC(=O)N1CCN(c2nc(CN3CCC(C)CC3)cs2)CC1
748	O=C(Nc1nnc(C2CC(=O)N(c3ccc(Cl)cc3)C2)o1)c1ccccc1F (stereo unspecified)
991	CCCCCC#CC[C@@H](O)/C=C/C=C/C=C\[C@@H](O)CCCC(=O)O
680	Cc1noc(C)c1Cc1c(C(=O)N2CCC3(CCC3O)CC2)noc1C (stereo unspecified)
588	CCN(CC)c1ccc(CNC(=O)C2CCc3nc(N4CCOCC4)ncc3C2)cc1 (stereo unspecified)
826	CCN1c2cc(Cl)ccc2C(=O)NC12CCN(C(=O)Nc1ccc3c(c1)OCO3)CC2
664	CC1CN2C=NC(N3CCN(C(=O)Nc4ccc(F)cc4F)CC3)=CC2=N1 (stereo unspecified)
679	Cc1cc(Nc2nc3ccncc3n(C(C)C)c2=O)ccc1F
592	Cn1c(=O)c(=O)n(C)c2cc(N3CCCCC3)c(NC(=O)CN3CCCCC3)cc21
1320	CCN(C(=O)c1ccco1)c1nc(-c2ccc(Br)cc2)cs1
752	CC(C)c1noc(C2CCCN(C(=O)NC3CCCCC3)CCC(=O)NCC2)n1 (stereo unspecified)
753	O=C(c1ccco1)N1CCN(c2ccc(=O)n(-c3cccc(Cl)c3)n2)CC1
840	Cc1ccc2c(Nc3ccc(S(N)(=O)=O)cc3)c(C(=O)OC(C)C)cnc2n1
